For 13 compounds, TGI results are on record in PubChem BioAssay (NCI).

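Interpolation was linear, between the two tested concentrations surrounding the appropriate level; five concentrations were tested over 48 hours in 96-well plates. TGI: total growth inhibition.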

Test systems include A549 NSCLC; ACHN renal; BT-549 breast; CAKI-1 renal; OVCAR-4 ovarian; SK-OV-3 ovarian; SN12C renal; SNB-19 CNS; UACC-257 melanoma; UACC-62 melanoma.
Assay in all cases: growth of human tumour cells (NCI), 48 h

For `C/C(=N\Nc1nc2ccccc2s1)c1ccc2ccccc2n1`, the TGI in the assay with A549 NSCLC, with ACHN renal, in the assay on BT-549 breast, in the assay on CAKI-1 renal, in the assay on OVCAR-4 ovarian and with SK-OV-3 ovarian was above 100 µM each time. In addition, the TGI in the assay on SN12C renal, with SNB-19 CNS, in the assay with UACC-257 melanoma and in the assay with UACC-62 melanoma was above 100 µM throughout.

Turning to `c1ccc(C2CC(=NC3CCCCC3)Nc3ccccc3N2)cc1` (stereo not given), the TGI with A549 NSCLC, in the assay on ACHN renal, in the assay with BT-549 breast, with CAKI-1 renal, with OVCAR-4 ovarian and in the assay on SK-OV-3 ovarian was above 100 µM in each case. Besides, the TGI in the assay on SN12C renal, with SNB-19 CNS, in the assay with UACC-257 melanoma and in the assay with UACC-62 melanoma was above 100 µM in each case.

Turning to `C[C@]12CC[C@@H]3c4ccc(O)cc4CC[C@H]3[C@@H]1C/C(=C\c1ccc(C#N)cc1)C2=O`, the TGI in the assay on A549 NSCLC, with ACHN renal, with BT-549 breast, in the assay with CAKI-1 renal, with OVCAR-4 ovarian and with SK-OV-3 ovarian was above 100 µM in each case. For the same compound, the TGI with SN12C renal, in the assay on SNB-19 CNS, in the assay on UACC-257 melanoma and in the assay with UACC-62 melanoma was above 100 µM in each case.

As for `COc1cc(C(O)c2ccc3c(c2)OCO3)cc(OC)c1OC` (stereo not given), the TGI with A549 NSCLC, in the assay with ACHN renal, with BT-549 breast, in the assay with CAKI-1 renal, in the assay with OVCAR-4 ovarian and in the assay with SK-OV-3 ovarian was above 100 µM throughout. The TGI in the assay with SN12C renal, in the assay with SNB-19 CNS, with UACC-257 melanoma and with UACC-62 melanoma was above 100 µM in each case.

Consider `CCN1C(=O)C(=C/C=C/c2ccc(N(CC)CC)cc2)C(=O)N(CC)C1=S`, for which the TGI in the assay with A549 NSCLC, in the assay with ACHN renal, in the assay with BT-549 breast, in the assay with CAKI-1 renal, in the assay on OVCAR-4 ovarian and with SK-OV-3 ovarian was above 100 µM each time. The TGI with SN12C renal, in the assay with SNB-19 CNS, in the assay with UACC-257 melanoma and in the assay with UACC-62 melanoma was above 100 µM in each case.

As for `COC(=O)[C@H](Cc1ccccc1)NC(=O)N(CCC#N)CCN(C(=O)N[C@@H](Cc1ccccc1)C(=O)OC)c1ccccc1`, the TGI in the assay with A549 NSCLC is above 100 µM; with ACHN renal, 33.9 µM; with BT-549 breast, above 100 µM; with CAKI-1 renal, 41 µM; in the assay with OVCAR-4 ovarian it was 69.2 µM; with SK-OV-3 ovarian, above 100 µM. The TGI was 89 µM in the assay with SN12C renal, above 100 µM in the assay on SNB-19 CNS, 37.5 µM in the assay on UACC-257 melanoma and 13.6 µM with UACC-62 melanoma.

`CN(C)c1ccc(Cc2cc3c(O)ccc(O)c3cc(Cc3ccc(N(C)C)cc3)c2=O)cc1`: the TGI was above 77.1 µM in the assay with A549 NSCLC; 25.3 µM in the assay with ACHN renal; 32.2 µM in the assay with BT-549 breast; 20.5 µM with CAKI-1 renal; 39.5 µM in the assay on OVCAR-4 ovarian; above 100 µM in the assay with SK-OV-3 ovarian. The TGI with SN12C renal was above 73.2 µM; in the assay with SNB-19 CNS it was above 63.4 µM; in the assay on UACC-257 melanoma, 48.9 µM; with UACC-62 melanoma, 65.9 µM.

Take `COc1ccc(Oc2cnn(C(Br)(Br)C(C)=O)c(=O)c2Br)cc1`: the TGI in the assay on A549 NSCLC is 60.7 µM; with ACHN renal, 26.4 µM; in the assay on BT-549 breast it was 32.1 µM; in the assay with CAKI-1 renal it was 24.6 µM; with OVCAR-4 ovarian it was 32.6 µM; in the assay with SK-OV-3 ovarian, above 64.3 µM. Also, the TGI with SN12C renal amounted to 28.5 µM; in the assay on SNB-19 CNS it was 56.8 µM; with UACC-257 melanoma it was 28.5 µM; in the assay with UACC-62 melanoma it was 29.6 µM.

Regarding `O=C1C=CC(=O)C(CNc2ccc(C(=O)OCc3ccccc3)cc2)=C1`, the TGI in the assay on A549 NSCLC came to 32.1 µM; in the assay with ACHN renal, 12.9 µM; in the assay with BT-549 breast it was 9.31 µM; in the assay on CAKI-1 renal, 2.94 µM; in the assay with OVCAR-4 ovarian, 10.4 µM; in the assay with SK-OV-3 ovarian it was 30.8 µM. For the same compound, the TGI with SN12C renal was found to be 19.3 µM; with SNB-19 CNS it was 26.5 µM; in the assay with UACC-257 melanoma, 25.2 µM; with UACC-62 melanoma it was 22.6 µM.

For the compound `S=C1NC2=C(CSC/C2=C\c2ccccc2)C(c2ccccc2)N1` (stereo not given), the TGI in the assay on A549 NSCLC is above 100 µM; with ACHN renal it was above 100 µM; in the assay with BT-549 breast, 78.7 µM; with CAKI-1 renal it was above 100 µM; with OVCAR-4 ovarian, above 100 µM; with SK-OV-3 ovarian it was above 100 µM. Also, the TGI with SN12C renal is above 100 µM; with SNB-19 CNS it was above 100 µM; in the assay on UACC-257 melanoma it was 58.8 µM; in the assay on UACC-62 melanoma it was above 100 µM.

Turning to `O=[N+]([O-])c1cccc2c(N=Nc3ccc4ccccc4c3O)c(O)cc(S(=O)(=O)O)c12`, the TGI in the assay on A549 NSCLC, with ACHN renal, with BT-549 breast, in the assay on CAKI-1 renal, with OVCAR-4 ovarian and in the assay on SK-OV-3 ovarian was above 100 µM in each case. The TGI in the assay on SN12C renal, in the assay on SNB-19 CNS, in the assay on UACC-257 melanoma and with UACC-62 melanoma was above 100 µM each time.

Take `CCOC(=O)c1sc2ncnc(N)c2c1C`: the TGI with A549 NSCLC, in the assay with ACHN renal, in the assay with BT-549 breast, in the assay on CAKI-1 renal, in the assay with OVCAR-4 ovarian and in the assay with SK-OV-3 ovarian was above 100 µM throughout. For the same compound, the TGI with SN12C renal, in the assay with SNB-19 CNS, in the assay on UACC-257 melanoma and in the assay on UACC-62 melanoma was above 100 µM in each case.

As to `Cc1cc(O)c(-c2cc(O)c(C)cc2O)cc1O`, the TGI in the assay on A549 NSCLC amounted to 49.5 µM; in the assay on ACHN renal, 13.7 µM; in the assay with BT-549 breast it was 26.7 µM; in the assay on CAKI-1 renal, 14.6 µM; with OVCAR-4 ovarian, 20.9 µM; in the assay with SK-OV-3 ovarian, 30.5 µM. In addition, the TGI is 13.6 µM in the assay on SN12C renal, 40.2 µM with SNB-19 CNS, 20.1 µM in the assay with UACC-257 melanoma and 29.8 µM in the assay with UACC-62 melanoma.
